The test system of assay [1] is clot growth in platelet-free plasma. The assay is described as follows: Clot growth rate in space (light scattering) in platelet-free plasma. It counts as biochemical. As to conditions: 1 mcM of the compound in normal plasma versus plasma control, FIG. 9-11. The text has this: The clot growth rate in space describes the dynamics of clotting, which is a process that develops over time and across space. This method measures light scattering to determine the size of the clot at different periods of time once clotting has begun. Clotting is activated in the system by an activator precisely localized in space without stirring. The activator was alternatively either a simple glass plate having a ground edge to cause contact activation on the internal path or fibroblast-coated polyethylene terephthalate films provided on the surface with a tissue factor to activate clotting on the external path. […]
Light scattering profiles corresponding to different time moments from the start of the experiment were obtained by processing the series of recorded images. […] The clot size in each frame was determined as the distance from the activator to the clot edge assumed to be the point where light scattering was half the maximum value. […]
The last output processing stage was calculating the clot growth rate on the basis of the light scattering profiles obtained. The clot size was assessed at each point of time as the distance of a respective light scattering profile from the activator (at half-point of the maximum profile height). […] The quasi-stationary growth rate of the clot was calculated from the inclination angle of the linear portion of the curve.

Assay [2] deals with endogenous thrombin potential in normal donor plasma (PPP). Kind of assay: Thrombin generation test (endogenous thrombin potential) in normal donor plasma. It counts as biochemical. Particulars: read-out: IC50 (50% reduction in endogenous thrombin potential). An excerpt:
This method was described in detail in many papers (Hemker H C, Giesen P L, Ramjee M, Wagenvoord R, Beguin S. The thrombogram: monitoring thrombin generation in platelet-rich plasma. Thromb. Haemost., 2000; 83(4): 589-591; Hemker H C, AlDieri R, Beguin S. Thrombin generation assays: accruing clinical relevance. Curr. Opin. Hematol., 2004, 11(3):170-175; Hemker H C, Giesen P, AlDieri R, Regnault V, de Smed E, Wagenvoord R, Lecompte T, Beguin S. The calibrated automated thrombogram (CAT): a universal routine test for hyper- and hypocoagulability. Pathophysiol. Haemost. Thromb., 2002, 32(5-6):249-253). The test is used to measure the kinetics and total quantity of active thrombin generated in a plasma sample over a specified time at a standard clotting activation level in the sample. These applicants' method is suitable for measuring thrombin concentration using a slow-action fluorogenic substrate (BOC-Ile-Gly-Arg-AMC), which gives a highly fluorescent product, 7-amino-4-methylcoumarin (AMC), when broken d own by thrombin. The use of a fluorogenic, rather than chromogenic, substrate is dictated by the fact that the fluorescence level in the sample is virtually unaffected by the solid fibrin clot formed in the metering cell, but this is a qualification that restricts the application of a chromogenic substrate (Hemker H C, Giesen P, AlDieri R, Regnault V, de Smed E, Wagenvoord R, Lecompte T, Beguin S. The calibrated automated thrombogram (CAT): a universal routine test for hyper- and hypocoagulability. Pathophysiol. Haemost. Thromb., 2002, 32(5-6):249-253). On the other hand, it is common knowledge that the bulk of thrombin (about 95%) in the sample is generated after the first clot has already formed (Hemker H C, AlDieri R, Beguin S. Thrombin generation assays: accruing clinical relevance. Curr. Opin. Hematol., 2004, 11(3):170-175).
The kinetics of thrombin generation and ultimately loss in plasma after clotting activation is shown in FIG. 1, which illustrates the relationship between concentration of active thrombin in a plasma sample and time. The area under the thrombin generation time curve (in this invention, from 0 to 50 minutes of incubation) is called endogenous thrombin potential (ETP). The curve is further characterized by tmax, the time when thrombin in the sample reaches maximum concentration, Amax, the maximum thrombin concentration in the system, and tlag, the time before clotting commencement, which is conventionally the time when thrombin reaches a concentration of 5 nM.
Obviously, important clotting information is contained in the shape of thrombin concentration to time curves, as well as the integral ETP level. In particular, against the background of low factor and clotting inhibitor concentration, thrombin concentration maximums can be lower and also broader, although the total ETP might not change at all. The presence of additional thrombin inhibitors in plasma must reduce ETP and maximum attainable thrombin concentration, and increase the clotting lag and the time required for thrombin to achieve maximum concentration.
Measurements were taken as follows: 90 microliters of normal donor plasma (PPP), 0 to 20 microliters of the test substance solution, and 20 to 0 microliters of buffering solution (20 mM of HEPES, 140 mM of NaCal, pH 7.5) were deposited in the holes of a 96 hole board so that the total volume of added substance and buffer is always 20 microliters. Whereupon 20 microliters of a fluorogenic substrate solution (at 5 mM initial concentration) was added to each of the board holes, and plasma was heated for 3 to 5 minutes at 37° C. Next, 25 microliters of a clotting activator solution was added simultaneously (using a multichannel pipette) to all the holes. A thromboplastin solution prepared from a standard thromboplastin reagent diluted to 1/250th of its original concentration by the same buffer further containing 80 mM of CaCl2 to measure the prothrombin time (PT) (RENAM, Russia) was used as activator. […]

With `Cc1cc(OCC[n+]2ccc(N)cc2)cc(OS(=O)(=O)c2ccccc2Cl)c1.[I-]` [HC-025s-IOC, 4-amino-1-(2-(3-methyl-5-(2-chlorobenzenesulfonyloxy)phenoxy)ethyl)-pyridinium iodide], the “Spatial clot growth dynamics (clot size versus time)” value in assay [1] is reported as “inhibits clotting”. In assay [2], the IC50 turned out to be 260 nM.

By IC50 is commonly meant the point on the concentration scale where inhibition reaches its midpoint.

The values are drawn from US8426433B2, priority 2007, dated 2013).
